The values that follow come from US20090010998A1 (priority 2007, published 2009).

A value given as a limit tells only on which side of the number the result lay.

The subject of data set [1] is BALB/c or A/J mice. The note with it: mouse, in vivo.
Data set [2] relates to backs of BALB/c mice. Kind of data set: in vivo release test, FD&C dye impregnated dissolvable film on abraded skin. To be noted: one hour after application; visually noted, estimated.
Experimental: In one test, the backs of BALB/c mice were treated in multiple sites with an abrasive device (FAST™ device, see, for example, United States Publication No. 20040236269, incorporated herein by reference) where a 60 μm abrasive, was applied to the skin with 10-20 grams of force, oscillating at 840 Hz for 2 seconds over a 5×8 mm spot. FD&C dye impregnated dissolvable films were placed over each treatment site with a semi-occlusive covering (patch). The patch was left on for a period of 1-24 hours.

Take `C=O` [formalin]: in data set [1], the “effect of adjuvant/preservative on antibody titer” value is on record as “higher titer antibody response” and the “effect of adjuvant/preservative on efficiency of TCI” value was “did not show a statistically significant difference”.

Consider FD&C No. 1 dye, for which the “presence of dye on the mouse skin” value in data set [2] is on record as above 75%.

Take alum: the “effect of adjuvant/preservative on antibody titer” value in data set [1] is recorded as “higher titer antibody response”.
